Source: paper PMC8637440, “Structural Modifications Yield Novel Insights Into the Intriguing Pharmacodynamic Potential of Anti-inflammatory Nitro-Fatty Acids” (Frontiers in Pharmacology, 2021)

System: Nrf-2
Test: Nrf-2 induction in HCT-116 cells (Western blot and ELISA)
Format: cell-based, human
Settings: 10 µM, 4 h, HCT-116, Western blot and ELISA
Protocol: The Nrf-2 and NF-κB transcription factors in the nuclear extracts were detected using an Nrf-2 Transcription Assay Kit (Cayman Chemical, # 600590) and NF-κB (p65 and p50) Transcription Factor Assay Kit (Cayman Chemical, # 10007889 and # 10006912). Prior to assay performance, the nuclear extracts were generated using a Nuclear Extraction Kit (Cayman Chemical, # 10009277). The assay was performed according to the manufacturer’s instructions. For all kits, the nuclear extracts were incubated overnight at 4°C. Development was carried out for 15–20 min or until the wells turned medium to dark blue. Five minutes after the stop solution had been added, the absorbance was read at 450 nm using a plate reader.
HCT-116 and A549 cells were washed with 1× PBS, and cell extracts were generated using a Nuclear Extraction Kit (Cayman Chemical, #10009277) according to the manufacturer’s instructions, whereas whole-cell lysates were obtained using SDS lysis buffer (55.5 mM Tris-HCl pH 6.8, 2.2% SDS, 9% glycerol supplemented with protease (cOmplete® Protease Inhibitor Cocktail, Roche, Mannheim, Germany) and phosphatase (PhosStop® Easy Pack, Roche, Mannheim, Germany) inhibitors. Protein concentrations from the nuclear and cytosolic fractions were determined with a bicinchoninic acid (BCA) protein assay kit (Pierce™, Rockford, Illinois, United States). Cytoplasmic and nuclear extracts (100 µg each) and 30 µg whole-cell lysates were diluted in 5× Laemmli loading dye and denatured for 10 min at 95°C, loaded on a 10% SDS polyacrylamide gel, and separated by gel electrophoresis for 15 min at 80 V followed by 60 min at 120 V. The separated proteins were blotted onto a nitrocellulose membrane (Hybond-C Extra, Amersham Biosciences Ltd., UK) using the Mini Trans-Blot® module (Bio-Rad, Hercules, California, United States) for 90 min at 90 V. The membrane was blocked with Odyssey blocking buffer (Li-Cor Biosciences, Bad Homburg, Germany) or 5% milk powder in TBS-T (Tris Buffered Saline with 0.1% Tween) for 1 h at room temperature (RT). The membranes were incubated with the primary antibodies overnight at 4°C, and then with the secondary antibodies for 1 h at RT. The primary antibodies were diluted 1:1,000 and the secondary antibodies were diluted 1:10,000 to 1:20,000. […]
FIGURE 2 Effects of NFA on Nrf-2 expression in colorectal cancer cells. HCT-116 cells were treated with 10 µM NFA and tBHQ and/or MMF for 4 h, and Nrf-2 levels were analyzed by western blotting and ELISA. […] (B) Nrf-2 expression levels were evaluated with an ELISA after incubation with NFA with different carbon chain lengths and Michael acceptor positions. […]

Row | Structure (SMILES) | induction of Nrf-2 (protein levels / signaling)
1 | CCCCCCCCC=C(CCCCCCCC(=O)O)[N+](=O)[O-] [18.9.9, 9-nitro-octadec-9-enoic acid] | strongest effects
2 | CCCCCCCC/C=C\CCCCCCCC(=O)O [OA, oleic acid, reference compound] | did not affect
